From patent US7282492B2, “Insecticidal composition having improved storage stability” (priority 2001, dated 2007) come the findings set out here.

The series is described as follows: Storage stability of Dimethoate emulsifiable concentrates Ia, Ib, Ic (Example 1). Type of series: physicochemical. To be noted: stored 14 days at 54° C.; Table 1. How it is done: Three emulsifiable concentrates (Ia, Ib and Ic) containing. Dimethoate were prepared by mixing the components listed below in the amounts stated. Said amounts are parts by weight.
The formulations Ia and Ib are not according to the invention but serve as comparison examples to formulation Ic (according to the invention).
The formulations were stored at different temperatures for various periods of time, whereupon the pro rata share of Dimethoate degradation was determined.

On to `O=C1C=CC(=O)O1` [maleic anhydride], for which the “Stabilization of Dimethoate relative to acetic anhydride” value is “twice as effectively”.
